Laboratory results reported in patent US20130315834A1, “NANOPROBE COMPRISING GOLD COLLOID NANOPARTICLES FOR MULTIMODALITY OPTICAL IMAGING OF CANCER AND TARGETED DRUG DELIVERY FOR CANCER” (priority 2010, published 2013).

Experiments:
A-431 cells = test: In-vitro uptake of hypericin, confocal fluorescence microscopy; type: cell-based, human; settings: about 3 hours incubation, FIG. 9b
Experimental: Targeting and localization of the nanoprobes to cellular receptors is assessed using dark field contrast imaging and confocal fluorescence microscopy. Briefly, A-431 cells are incubated with the nanoprobes for about 3 hours at about 37° C. The cells are then washed in PBS, fixed in 2% paraformaldehyde for about 10 mins and mounted in Vectashield fluorescent mounting medium (Vector Laboratories, Burlingame, Calif.). The cells are visualized via dark field illumination system (CytoViva, Auburn, Ala.) attached to a Nikon Eclipse 80i microscope. The in-vitro localization of the nanoprobes is also assessed by exciting the cells using a 488 nm argon laser. Fluorescence emission in the wavelength range of 590-630 nm is split by a dichroic filter and detected through a band pass filter (BP-610 nm; Omega Optical, Brattleboro, Vt.). […]
Confocal fluorescence microscopy is used to study CNE2 cells treated with 2 hypericin and A-431 cells treated with Hypericin-Au-EGFR theragnostic probe for about 6 hours under physiological conditions. […]
Using confocal laser scanning microscope, the in-vitro uptake of hypericin-GNP labeled with anti-EGFR after about 3 hours incubation is also assessed. […] The intensity of hypericin fluorescence following incubation of hypericin alone is greater compared to incubating the cells with bioconjugated hypericin GNP conjugate (FIG. 9b). […]

CNE2 cells = test: as above; type: cell-based; settings: 2 hypericin, about 6 hours, physiological conditions
Experimental: Confocal fluorescence microscopy is used to study CNE2 cells treated with 2 hypericin and A-431 cells treated with Hypericin-Au-EGFR theragnostic probe for about 6 hours under physiological conditions. […] This will be ideal for a probe for diagnosis and therapy.

A-431 cell lines = test: PDT in cellular model, white light, apoptosis/necrosis staining (Example 7); type: cell-based, human; settings: about 12 hours incubation, broadband white light; hypericin 2-10 μM
Experimental: After establishing the internalization and delivery capabilities of Hypericin-Au-EGFR probe, the therapeutic potential of the probe by conducting a PDT experiment in a cellular model is examined. Hypericin-Au-EGFR probe and various amounts of hypericin are incubated with A-431 cell lines for about 12 hours and PDT is conducted using a broadband excitation using white light. Post PDT images are recorded using a confocal fluorescence microscopy with differential staining for apoptosis in green (as indicated by the white encircled area) and necrosis in red (as shown by the lighter shade indicated by the white arrow) to assess the PDT effect.

Cc1cc(O)c2c(=O)c3c(O)cc(O)c4c5c(O)cc(O)c6c(=O)c7c(O)cc(C)c8c1c2c(c34)c(c78)c65 [hypericin]
intensity of hypericin fluorescence, hypericin alone compared to bioconjugated hypericin GNP (A-431 cells): greater | hypericin fluorescence in cells (CNE2 cells): hypericin fluorescence from within the cell | mode of cell death after PDT (A-431 cell lines): cell death via necrosis
